Measured values taken from PubChem BioAssay AID256 (DTP/NCI, 2004).
Inconclusive results and toxic doses are left out. How the source made its calls: active means survival T/C of 150% or more; inactive means T/C below 125% in these data.

Test system: CD2F1 mice, L1210 leukemia ip, survival T/C
Experiment: NCI In Vivo Anticancer Drug Screen. Data for tumor model L1210 Leukemia (intraperitoneal) in CD2F1 (CDF1) mice
Conditions: higher = longer survival
Outline: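 Compound-dosed mice with transplantable tumor versus matched vehicle controls; endpoint ratio T/C reported.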

[1] = endpoint: mean survival time, dose: 100.0 mg/kg/injection, schedule: Q01DX009 (ip), vehicle: saline with Tween-80
[2] = endpoint: mean survival time, dose: 100.0 mg/kg/injection, schedule: Q04DX003 (ip), vehicle: saline with Tween-80
[3] = endpoint: mean survival time, dose: 200.0 mg/kg/injection, schedule: Q01DX009 (ip), vehicle: saline with Tween-80
[4] = endpoint: mean survival time, dose: 200.0 mg/kg/injection, schedule: Q04DX003 (ip), vehicle: saline with Tween-80
[5] = endpoint: mean survival time, dose: 400.0 mg/kg/injection, schedule: Q01DX009 (ip), vehicle: saline with Tween-80
[6] = endpoint: mean survival time, dose: 400.0 mg/kg/injection, schedule: Q04DX003 (ip), vehicle: saline with Tween-80
[7] = endpoint: mean survival time, dose: 100.0 mg/kg/injection, schedule: Q01DX001 (ip), vehicle: saline
[8] = endpoint: mean survival time, dose: 100.0 mg/kg/injection, schedule: Q04DX003 (ip), vehicle: saline

Measured: T/C

CC1=NN(c2ccccc2)C(=O)C1
inactive: [1] 98 % of control | [2] 94 % of control | [3] 102 % of control | [4] 92 % of control | [5] 96 % of control | [6] 86 % of control

c1ccc2c(c1)CCc1ccccc1N2
inactive: endpoint: mean survival time, dose: 100.0 mg/kg/injection, schedule: Q01DX001 (ip), vehicle: saline with Tween-80 100 % of control | endpoint: mean survival time, dose: 200.0 mg/kg/injection, schedule: Q01DX001 (ip), vehicle: saline with Tween-80 100 % of control | endpoint: mean survival time, dose: 400.0 mg/kg/injection, schedule: Q01DX001 (ip), vehicle: saline with Tween-80 91 % of control

C1=C(c2ccccc2)CC(/C=C/c2ccccc2)(c2ccccc2)C1c1ccccc1 (configuration not stated)
inactive: endpoint: mean survival time, dose: 25.0 mg/kg/injection, schedule: Q01DX009 (ip), vehicle: saline with Tween-80 92 % of control | endpoint: mean survival time, dose: 50.0 mg/kg/injection, schedule: Q01DX009 (ip), vehicle: saline with Tween-80 98 % of control | [1] 90 % of control

CC(=O)OCCC/C(=C\c1ccc(Cl)c(Cl)c1)[N+](=O)[O-]
inactive: [7] 100 % of control

O=c1[nH]cc(COCc2ccccc2)c(=O)[nH]1
inactive: [2] 98 % of control | [4] 104 % of control | [6] 96 % of control

O=c1nc(NCCc2c[nH]c3ccccc23)ccn1C1OC(CO)C(O)C1O (configuration not stated)
inactive: endpoint: median survival time, dose: 12.5 mg/kg/injection, schedule: Q01DX005 (ip), vehicle: distilled water + Tween-80 101 % of control | endpoint: median survival time, dose: 25.0 mg/kg/injection, schedule: Q01DX005 (ip), vehicle: distilled water + Tween-80 100 % of control | endpoint: median survival time, dose: 50.0 mg/kg/injection, schedule: Q01DX005 (ip), vehicle: distilled water + Tween-80 98 % of control | endpoint: median survival time, dose: 100.0 mg/kg/injection, schedule: Q01DX005 (ip), vehicle: distilled water + Tween-80 98 % of control | endpoint: median survival time, dose: 200.0 mg/kg/injection, schedule: Q01DX005 (ip), vehicle: distilled water + Tween-80 98 % of control

O=C(NCc1ccccc1)C1C2CC3OC(=O)C1C3C2 (configuration not stated)
inactive: endpoint: mean survival time, dose: 12.5 mg/kg/injection, schedule: Q04DX003 (ip), vehicle: saline with Tween-80 112 % of control | endpoint: mean survival time, dose: 12.5 mg/kg/injection, schedule: Q04DX003 (ip), vehicle: saline 106 % of control | endpoint: mean survival time, dose: 25.0 mg/kg/injection, schedule: Q04DX003 (ip), vehicle: saline with Tween-80 114 % of control | endpoint: mean survival time, dose: 25.0 mg/kg/injection, schedule: Q04DX003 (ip), vehicle: saline 108 % of control | endpoint: mean survival time, dose: 50.0 mg/kg/injection, schedule: Q04DX003 (ip), vehicle: saline with Tween-80 114 % of control | endpoint: mean survival time, dose: 50.0 mg/kg/injection, schedule: Q04DX003 (ip), vehicle: saline 110 % of control | [2] 114 % of control | [8] 108 % of control

CCC(=O)O/N=C(\c1ccccc1)c1cccnc1
inactive: endpoint: mean survival time, dose: 100.0 mg/kg/injection, schedule: Q01DX001 (ip), vehicle: other 113 % of control | endpoint: mean survival time, dose: 200.0 mg/kg/injection, schedule: Q01DX001 (ip), vehicle: other 98 % of control | endpoint: mean survival time, dose: 400.0 mg/kg/injection, schedule: Q01DX001 (ip), vehicle: other 101 % of control

Cc1nc(=O)cnn1C1OC(CO)C(O)C1O (configuration not stated)
inactive: endpoint: mean survival time, dose: 12.5 mg/kg/injection, schedule: Q01DX005 (ip), vehicle: distilled water + Tween-80 102 % of control | endpoint: mean survival time, dose: 25.0 mg/kg/injection, schedule: Q01DX005 (ip), vehicle: distilled water + Tween-80 102 % of control | endpoint: mean survival time, dose: 50.0 mg/kg/injection, schedule: Q01DX005 (ip), vehicle: distilled water + Tween-80 97 % of control | endpoint: mean survival time, dose: 100.0 mg/kg/injection, schedule: Q01DX005 (ip), vehicle: distilled water + Tween-80 103 % of control | endpoint: mean survival time, dose: 200.0 mg/kg/injection, schedule: Q01DX005 (ip), vehicle: distilled water + Tween-80 105 % of control

Nc1nc(N)c(N=O)c(N)n1
inactive: endpoint: mean survival time, dose: 100.0 mg/kg/injection, schedule: Q01DX009 (ip), vehicle: saline 98 % of control | [8] 103 % of control | endpoint: mean survival time, dose: 200.0 mg/kg/injection, schedule: Q01DX009 (ip), vehicle: saline 97 % of control | endpoint: mean survival time, dose: 200.0 mg/kg/injection, schedule: Q04DX003 (ip), vehicle: saline 97 % of control | endpoint: mean survival time, dose: 400.0 mg/kg/injection, schedule: Q01DX009 (ip), vehicle: saline 100 % of control | endpoint: mean survival time, dose: 400.0 mg/kg/injection, schedule: Q04DX003 (ip), vehicle: saline 102 % of control

CN(C)C1CCCC(OC(=O)c2ccccc2)C1 (configuration not stated)
inactive: endpoint: mean survival time, dose: 25.0 mg/kg/injection, schedule: Q04DX002 (ip), vehicle: saline 97 % of control | endpoint: mean survival time, dose: 50.0 mg/kg/injection, schedule: Q04DX002 (ip), vehicle: saline 105 % of control | [7] 101 % of control | endpoint: mean survival time, dose: 100.0 mg/kg/injection, schedule: Q04DX002 (ip), vehicle: saline 94 % of control | endpoint: mean survival time, dose: 200.0 mg/kg/injection, schedule: Q01DX001 (ip), vehicle: saline 100 % of control

O=[N+]([O-])c1ccc(N/N=C/c2ccnc3ccccc23)cc1
inactive: endpoint: mean survival time, dose: 100.0 mg/kg/injection, schedule: Q04DX003 (ip), vehicle: Klucel (hydroxypropylcellulose) (HPC) 89 % of control | endpoint: mean survival time, dose: 200.0 mg/kg/injection, schedule: Q04DX003 (ip), vehicle: Klucel (hydroxypropylcellulose) (HPC) 91 % of control | endpoint: mean survival time, dose: 400.0 mg/kg/injection, schedule: Q04DX003 (ip), vehicle: Klucel (hydroxypropylcellulose) (HPC) 97 % of control

CC(=O)Nc1ccccc1C#N
inactive: [1] 98 % of control | [3] 98 % of control | [5] 113 % of control

C=CCCCCCCCCC(=O)NCc1nc2ccccc2[nH]1
inactive: [1] 91 % of control | [3] 96 % of control | [5] 96 % of control
